Data as given in US10238631B2, “Sesquiterpene derivatives and their use in inflammation or cancer treatment” (Academia Sinica, priority 2014, dated 2019).

Columns and labels:
[1] = tested on: B16-F10 (NRAS mutation); assay: MTT cell viability assay, B16-F10 melanoma; format: cell-based; details: Mus musculus, B16-F10, 24 h, 24 h, read-out: IC50 on cell viability, B16-F10 (NRAS mutation)
Description: (§1) Normal or cancer cells (2×10^3 to 1×10^4 cells/well) were seeded in 96-well plate for overnight and treated with different compounds for 24 h to 72 h. Cells growth were determined by MTT-based colorimetric assays according to. Viability of the test cells treated with vehicle (0.5% DMSO) only was defined as 100% viable. Survival of cells after treatment with DETDs was calculated using the following formula: viable cell number (%)=OD570 (treated cell culture)/OD570 (vehicle control)×100.
(§2) Several genes are involved in melanoma development and pathology; specifically, mutation in V-raf murine sarcoma viral oncogene homolog B1 (B-RAF) occurs approximately 50-60% and in neuroblastoma RAS viral oncogene homolog (N-RAS) occurs about 30% of malignant melanomas. A spectrum of wild-type or mutated melanoma cell lines including B16-F10, MeWo, A375, A2058, HTB-68, and melanocyte were used to study anti-melanoma cell proliferation activity of parental phytocompound DET and newly synthesized DETDs.

[2] = tested on: A375 (BRAF mutation); assay: MTT cell viability assay, A375 melanoma; format: cell-based, human; details: Homo sapiens, A-375, 24 h, 24 h, MTT; read-out: IC50 on cell viability, A375 (BRAF mutation)
Description: as §1, §2
To investigate whether or not DETD-35 show synergism with PLX4032 against A375 melanoma cells, we performed anti-proliferation assay using MTT reagent to obtain IC50 of each compound. […] The synergistic effect was quantified by combination index (CI) analysis as stated above.

[3] = tested on: LPS-induced nitric oxide (NO) production in RAW 264.7 cells; assay: Nitric oxide production in LPS-stimulated macrophages (Griess); format: cell-based, mouse; details: Mus musculus; LPS-stimulated RAW264.7, nitrite 24 h after LPS
Description: (§3) Marcophages (2×10^5 cells/well in 96-well plate) were treated with compounds for 1 h, then incubated further for 24 h with or without the presence of […] LPS in the cultural medium. Nitrite levels in cell culture medium were determined by the Griess reaction method. In parallel to the Griess assays, macrophage cell viabilities were determined using the MTT based colorimetric assay.
LPS from the outer membrane of Gram-negative bacteria can induce mRNA or protein levels of inducible nitric oxide synthase (iNOS), which catalyzes oxidative deamination of L-arginine to produce nitric oxide (NO). Once NO is predominantly produced, it interacts with superoxide anion and generates highly reactive oxidants resulting in cellular inflammation, DNA, protein and tissue damages, carcinogenesis, and antiapoptosis. We used in vitro LPS stimulated inflammation in RAW264.7 cell system to evaluate the effect of DET and its derivatives DETDs on NO production by determination of nitrite level (equivalent to NO level) in culture medium 24 h after LPS treatment.

[4] = tested on: Melanocyte (Normal cells); assay: MTT cell viability assay, normal melanocytes; format: cell-based, human; details: Homo sapiens, Melanocyte, 24 h
Description: as §1, §2

[5] = tested on: MeWo (No NRAS or BRAF mutation); assay: MTT cell viability assay, MeWo melanoma; format: cell-based, human; details: Homo sapiens, MeWo, 24 h
Description: as §1, §2

[6] = tested on: MCF-7 (ER+, Her2−) human breast cancer cells; assay: MTT cell viability assay, MCF-7 cells; format: cell-based; details: MCF7, 24 h, read-out: IC50 on cell viability, MCF-7 (ER+, Her2−)
Description: as §1
(§4) Sixty DETDs were derived from parental compound […] and tested for anti-breast cancer cell activity.

[7] = tested on: TS/A (ER+, Her2−) murine mammary cancer cells; assay: MTT cell viability assay, TS/A cells; format: cell-based; details: Mus musculus, 24 h, read-out: IC50 on cell viability, TS/A (ER+, Her2−)
Description: as §1, §4

[8] = tested on: MDA-MB-231 (ER−, PR−, Her2−) human breast cancer cells; assay: MTT cell viability assay, MDA-MB-231 cells; format: cell-based; details: Homo sapiens, MDA-MB-231, 24 h, read-out: IC50 on cell viability, MDA-MB-231 (ER−, PR−, Her2−)
Description: as §1, §4

[9] = tested on: HTB-68 (NRAS mutation); assay: MTT cell viability assay, HTB-68 melanoma; format: cell-based, human; details: Homo sapiens, 24 h
Description: as §1, §2

[10] = tested on: A2058 (BRAF mutation); assay: MTT cell viability assay, A2058 melanoma; format: cell-based, human; details: Homo sapiens, A2058, 24 h
Description: as §1, §2

[11] = tested on: M10 normal mammary epithelial cells; assay: MTT cell viability assay, M10 normal cells; format: cell-based, human; details: Homo sapiens, Epithelial cell, 24 h
Description: as §1, §4

[12] = tested on: melanoma cell lines B16-F10, MeWo, A375, A2058, HTB-68; assay: MTT cell viability assay, all melanoma cell lines; format: cell-based; details: 24 h, read-out: IC50 values over all types of melanoma cell lines
Description: as §1, §2

[13] = tested on: RAW264.7 (normal macrophage); assay: MTT cell viability assay, RAW264.7 macrophages; format: cell-based, mouse; details: Mus musculus, RAW264.7, 24 h
Description: as §1, §3

IC50 [1]	IC50 [2]	IC50 [3]	IC50 [5]	IC50 [6]	IC50 [7]	IC50 [8]	IC50 [9]	IC50 [10]	IC50 [12]	SMILES	IC50 [4]	IC50 [11]	IC50 [13]
3.9 µM	3 µM	2.1 µM	6.7 µM	3.6 µM	1.8 µM	4.2 µM	6.1 µM	4.4 µM	1.6 to 9.9 µM	C=C1C(=O)OC2CC3=C[C@@H](C/C(C)=C/C(OC(=O)/C=C/c4ccc(Cl)cc4)[C@H]12)OC3=O (stereo partly drawn) [DETD-28]	> 10 µM	4.8 µM	> 10 µM
2.5 µM	3.4 µM	1.6 µM	9.1 µM	3.7 µM	2.4 µM	4.3 µM	7.6 µM	5.2 µM	1.6 to 9.9 µM	C=C1C(=O)OC2CC3=C[C@@H](C/C(C)=C/C(OC(=O)c4cccs4)[C@H]12)OC3=O (stereo partly drawn) [DETD-30]	> 10 µM	> 7.5 µM	> 10 µM
2.2 µM	2.9 µM	1.9 µM	6.7 µM	2.7 µM	1.8 µM	4.2 µM	5.9 µM	4.2 µM	1.6 to 9.9 µM	C=C1C(=O)OC2CC3=C[C@@H](C/C(C)=C/C(OC(=O)c4ccc(C)cc4)[C@H]12)OC3=O (stereo partly drawn) [DETD-33]	> 10 µM	> 7.5 µM	> 10 µM
2 µM	3.1 µM	2.3 µM	7.3 µM	6.1 µM	3 µM	2.2 µM	6.8 µM	4.4 µM	1.6 to 9.9 µM	C=C1C(=O)OC2CC3=C[C@@H](C/C(C)=C/C(OC(=O)c4ccc(Br)cc4)[C@H]12)OC3=O (stereo partly drawn) [DETD-34]	> 10 µM	> 7.5 µM	> 10 µM
4.5 µM	1.7 µM	2.8 µM	4.5 µM	3.1 µM	2 µM	3.1 µM	3.5 µM	3.6 µM	1.6 to 9.9 µM	C=C1C(=O)OC2CC3=C[C@@H](C/C(C)=C/C(OC(=O)Cc4cccc5cc(OC)ccc45)[C@H]12)OC3=O (stereo partly drawn) [DETD-45]	> 10 µM	4.7 µM	> 10 µM
5.4 µM	2.6 µM	3.1 µM	6.3 µM	> 7.5 µM	3.8 µM	7.3 µM	4.5 µM	5 µM	–	C=C1C(=O)OC2CC3=C[C@@H](C/C(C)=C/C(OC(=O)Cc4ccc5cc(OC)ccc5c4)[C@H]12)OC3=O (stereo partly drawn) [DETD-46]	> 10 µM	> 7.5 µM	> 10 µM
> 10 µM	8.3 µM	> 10 µM	> 10 µM	> 7.5 µM	> 7.5 µM	> 15 µM	> 10 µM	> 10 µM	–	C=C1C(=O)OC2CC3=C[C@@H](C/C(C)=C/C(OC(=O)/C=C/c4cccc(OC(F)(F)F)c4)[C@H]12)OC3=O (stereo partly drawn) [DETD-47]	> 10 µM	> 7.5 µM	> 10 µM
> 10 µM	6.9 µM	> 10 µM	> 10 µM	> 7.5 µM	> 7.5 µM	8.2 µM	> 10 µM	> 10 µM	–	C=C1C(=O)OC2CC3=C[C@@H](C/C(C)=C/C(OC(=O)/C=C/c4cccc(C(F)(F)F)c4)[C@H]12)OC3=O (stereo partly drawn) [DETD-48]	> 10 µM	> 7.5 µM	> 10 µM
> 10 µM	4.9 µM	3.4 µM	> 10 µM	> 7.5 µM	> 7.5 µM	9.5 µM	> 10 µM	> 10 µM	–	C=C1C(=O)OC2CC3=C[C@@H](C/C(C)=C/C(OC(=O)/C=C/c4ccc(OC)c(OC)c4)[C@H]12)OC3=O (stereo partly drawn) [DETD-49]	> 10 µM	> 7.5 µM	> 10 µM
9.4 µM	4.6 µM	> 10 µM	9.3 µM	> 7.5 µM	4.4 µM	7.7 µM	> 10 µM	8.7 µM	–	C=C1C(=O)OC2CC3=C[C@@H](C/C(C)=C/C(OC(=O)/C=C/c4cccc(OCC)c4)[C@H]12)OC3=O (stereo partly drawn) [DETD-50]	> 10 µM	> 7.5 µM	> 10 µM
> 10 µM	> 10 µM	> 10 µM	> 10 µM	> 7.5 µM	> 7.5 µM	> 15 µM	> 10 µM	> 10 µM	–	C=C1C(=O)OC2CC3=C[C@@H](C/C(C)=C/C(OC(=O)CCc4cccc5ccccc45)[C@H]12)OC3=O (stereo partly drawn) [DETD-51]	> 10 µM	> 7.5 µM	> 10 µM
> 10 µM	> 10 µM	> 10 µM	> 10 µM	> 7.5 µM	> 7.5 µM	> 15 µM	> 10 µM	> 10 µM	–	C=C1C(=O)OC2CC3=C[C@@H](C/C(C)=C/C(OC(=O)Cc4cccc5cccnc45)[C@H]12)OC3=O (stereo partly drawn) [DETD-52]	> 10 µM	> 7.5 µM	> 10 µM
5.2 µM	2.8 µM	3.5 µM	6 µM	4.1 µM	4.1 µM	3.8 µM	5 µM	5.5 µM	1.6 to 9.9 µM	C=C1C(=O)OC2CC3=C[C@@H](C/C(C)=C/C(OC(=O)[C@@H](C)c4ccc5cc(OC)ccc5c4)[C@H]12)OC3=O (stereo partly drawn) [DETD-53]	> 10 µM	4.8 µM	> 10 µM
8.1 µM	4.2 µM	> 10 µM	> 10 µM	> 7.5 µM	> 7.5 µM	> 15 µM	8 µM	8.3 µM	–	C=C1C(=O)OC2CC3=C[C@@H](C/C(C)=C/[C@@H](OC(=O)[C@H](OC)c4ccc5ccccc5c4)[C@H]12)OC3=O (stereo partly drawn) [DETD-57]	> 10 µM	> 7.5 µM	> 10 µM
6.3 µM	2.6 µM	> 10 µM	> 10 µM	> 7.5 µM	3.5 µM	5.1 µM	4.8 µM	6 µM	–	C=C1C(=O)OC2CC3=C[C@@H](C/C(C)=C/[C@@H](OC(=O)Cc4coc5ccccc45)[C@H]12)OC3=O (stereo partly drawn) [DETD-59]	> 10 µM	> 7.5 µM	> 10 µM
9.3 µM	5 µM	> 10 µM	> 10 µM	> 7.5 µM	> 7.5 µM	7.4 µM	9 µM	8.7 µM	–	C=C1C(=O)OC2CC3=C[C@@H](C/C(C)=C/[C@H](OC(=O)Cc4cccc5ccccc45)[C@H]12)OC3=O (stereo partly drawn) [DETD-62]	> 10 µM	> 7.5 µM	> 10 µM
